Results on 7 compounds are retold here after patent US8410302B2, “Methoxyimino compounds and fungicide composition comprising same” (Kyung Nong Corporation, priority 2007, dated 2013).

Structures are written as SMILES.

Assay [1] relates to Pyricularia oryzae Carvara KA301. The experiment in a line: whole plant or invertebrate. The note with it: for pest or weed control at 2 ppm / pest or weed control at 10 ppm / pest or weed control at 50 ppm / pest or weed control at 100 ppm: Pyricularia oryzae, read-out: RCB control value (C.V.). It counts as in vivo.
The subject of a further assay is Botrytis cinerae. As to the kind of experiment: Fungicidal activity against cucumber gray mold rot (CGM) disease, control value. It counts as in vivo. The note with it: 100 ppm; for pest or weed control at 100 ppm: Botrytis, read-out: CGM control value (C.V.).
Another assay relates to Phytophthora infestans. The experiment in a line: whole plant or invertebrate. Type of assay: in vivo. The note with it: for pest or weed control at 2 ppm / pest or weed control at 10 ppm / pest or weed control at 50 ppm / pest or weed control at 100 ppm: Phytophthora infestans, in Solanum lycopersicum, read-out: TLB control value (C.V.).
For the next assay, the system named is Puccinia recondita. As to the kind of experiment: Fungicidal activity against wheat leaf rust (WLR) disease, control value. Type of assay: in vivo. The note with it: for pest or weed control at 2 ppm / pest or weed control at 10 ppm / pest or weed control at 50 ppm / pest or weed control at 100 ppm: Puccinia recondita, read-out: WLR control value (C.V.).
Another assay relates to Erysiphae graminis. The experiment in a line: Fungicidal activity against barley powdery mildew (BPM) disease, control value. Type of assay: in vivo. The note with it: for pest or weed control at 2 ppm / pest or weed control at 10 ppm / pest or weed control at 50 ppm / pest or weed control at 100 ppm: 168 h, read-out: BPM control value (C.V.).
Another assay has as its system Rhizoctonia solani AG-1. The experiment in a line: Fungicidal activity against rice sheath blight (RSB) disease, control value. To be noted: for pest or weed control at 2 ppm / pest or weed control at 10 ppm / pest or weed control at 50 ppm / pest or weed control at 100 ppm: Rhizoctonia solani, AG1, in Oryza sativa, read-out: RSB control value (C.V.).

With `CO/N=C(/C(=O)OC)c1ccccc1COc1cc(C=C(Br)Br)ccc1OC` [Example 71, methyl-(E)-2-(2-((5-(2,2-dibromovinyl)-2-methoxyphenoxy)methyl)phenyl)-2-methoxyiminoacetate], the pest or weed control at 2 ppm in assay [1] stood at 30%; in the assay with Phytophthora infestans, 70%; with Puccinia recondita (2 ppm), 95%; in the assay with Erysiphae graminis (2 ppm), 95%; with Rhizoctonia solani AG-1, 65%. In addition, the pest or weed control at 10 ppm worked out at 90% in assay [1]; 90% in the assay on Phytophthora infestans; 100% with Puccinia recondita (10 ppm); 100% with Erysiphae graminis (10 ppm); 98% in the assay with Rhizoctonia solani AG-1. The pest or weed control at 50 ppm was 100% in assay [1]; 98% in the assay with Phytophthora infestans; 100% with Puccinia recondita (50 ppm); 100% in the assay on Erysiphae graminis (50 ppm); 100% with Rhizoctonia solani AG-1. Also, the pest or weed control at 100 ppm was found to be 100% in assay [1]; 65% in the assay on Botrytis cinerae; 100% in the assay with Phytophthora infestans; 100% with Puccinia recondita (100 ppm); 100% with Erysiphae graminis (100 ppm); 100% in the assay on Rhizoctonia solani AG-1.

Take `CNC(=O)/C(=N/OC)c1ccccc1COc1cc(C=C(Br)Br)ccc1OC` [Example 72, (E)-2-(2-((5-(2,2-dibromovinyl)-2-methoxyphenoxy)methyl)phenyl)-2-methoxyimino-N-methylacetamide]: the pest or weed control at 2 ppm in assay [1] amounted to 80%; in the assay with Phytophthora infestans, 70%; in the assay on Puccinia recondita (2 ppm), 97%; with Erysiphae graminis (2 ppm) it was 98%; in the assay on Rhizoctonia solani AG-1 it was 75%. In addition, the pest or weed control at 10 ppm in assay [1] amounted to 99%; with Phytophthora infestans, 90%; in the assay on Puccinia recondita (10 ppm), 100%; in the assay on Erysiphae graminis (10 ppm) it was 100%; in the assay on Rhizoctonia solani AG-1, 98%. Moreover, the pest or weed control at 50 ppm (in assay [1]; in the assay on Phytophthora infestans; with Puccinia recondita (50 ppm); in the assay with Erysiphae graminis (50 ppm); with Rhizoctonia solani AG-1) was 100% in each case. Further, the pest or weed control at 100 ppm was 100% in assay [1]; 79% with Botrytis cinerae; 100% with Phytophthora infestans; 100% with Puccinia recondita (100 ppm); 100% in the assay on Erysiphae graminis (100 ppm); 100% in the assay with Rhizoctonia solani AG-1.

Consider `CO/N=C(/C(=O)OC)c1ccccc1COc1c(C)cccc1C=C(Br)Br` [Example 73, methyl-(E)-2-(2-((2-(2,2-dibromovinyl)-6-methylphenoxy)methyl)phenyl)-2-methoxyiminoacetate], for which the figures for the pest or weed control at 2 ppm (in assay [1]; in the assay with Puccinia recondita (2 ppm); in the assay on Erysiphae graminis (2 ppm)) were 70%, 100% and 15%, respectively. Further, the pest or weed control at 10 ppm in assay [1] was found to be 90%; in the assay with Phytophthora infestans it was 10%; in the assay on Puccinia recondita (10 ppm) it was 100%; with Erysiphae graminis (10 ppm), 60%. The pest or weed control at 50 ppm was 100% in assay [1], 90% in the assay with Phytophthora infestans, 100% with Puccinia recondita (50 ppm) and 93% in the assay with Erysiphae graminis (50 ppm). Moreover, the pest or weed control at 100 ppm in assay [1] came to 100%; in the assay with Botrytis cinerae, 20%; in the assay on Phytophthora infestans it was 100%; in the assay with Puccinia recondita (100 ppm), 100%; in the assay with Erysiphae graminis (100 ppm), 95%; with Rhizoctonia solani AG-1, 10%.

As to `CNC(=O)/C(=N/OC)c1ccccc1COc1c(C)cccc1C=C(Br)Br` [Example 74, (E)-2-(2-((2-(2,2-dibromovinyl)-6-methylphenoxy)methyl)phenyl)-2-methoxyimino-N-methylacetamide], the pest or weed control at 2 ppm came to 10% in assay [1], 90% with Puccinia recondita (2 ppm), 92% with Erysiphae graminis (2 ppm) and 67% with Rhizoctonia solani AG-1. Moreover, the pest or weed control at 10 ppm in assay [1] was 90%; in the assay on Phytophthora infestans, 80%; with Puccinia recondita (10 ppm), 99%; in the assay with Erysiphae graminis (10 ppm), 100%; with Rhizoctonia solani AG-1, 80%. In addition, the pest or weed control at 50 ppm in assay [1] was 100%; in the assay with Phytophthora infestans, 90%; in the assay on Puccinia recondita (50 ppm), 100%; in the assay on Erysiphae graminis (50 ppm), 100%; in the assay with Rhizoctonia solani AG-1, 90%. Moreover, the pest or weed control at 100 ppm in assay [1] turned out to be 100%; with Botrytis cinerae it was 35%; with Phytophthora infestans it was 100%; with Puccinia recondita (100 ppm), 100%; in the assay with Erysiphae graminis (100 ppm), 100%; with Rhizoctonia solani AG-1, 100%.

`CO/N=C(/C(=O)OC)c1ccccc1COc1c(OC)ccc(C=C(Br)Br)c1Br` [Example 75, methyl-(E)-2-(2-((2-bromo-3-(2,2-dibromovinyl)-6-methoxyphenoxy)methyl)phenyl)-2-methoxyiminoacetate]: the pest or weed control at 2 ppm worked out at 30% in assay [1]; 70% in the assay with Phytophthora infestans; 95% in the assay on Puccinia recondita (2 ppm); 92% in the assay with Erysiphae graminis (2 ppm); 65% in the assay on Rhizoctonia solani AG-1. Also, the pest or weed control at 10 ppm in assay [1] amounted to 90%; in the assay with Phytophthora infestans it was 90%; in the assay on Puccinia recondita (10 ppm), 100%; with Erysiphae graminis (10 ppm), 98%; in the assay with Rhizoctonia solani AG-1, 98%. Besides, the pest or weed control at 50 ppm in assay [1] stood at 100%; in the assay with Phytophthora infestans it was 98%; in the assay with Puccinia recondita (50 ppm), 100%; in the assay on Erysiphae graminis (50 ppm) it was 100%; in the assay on Rhizoctonia solani AG-1, 100%. Also, the pest or weed control at 100 ppm is 100% in assay [1]; 40% in the assay on Botrytis cinerae; 100% with Phytophthora infestans; 100% with Puccinia recondita (100 ppm); 100% in the assay with Erysiphae graminis (100 ppm); 100% with Rhizoctonia solani AG-1.

As for `CNC(=O)/C(=N/OC)c1ccccc1COc1c(OC)ccc(C=C(Br)Br)c1Br` [Example 76], the “RCB control value (C.V.)” value in assay [1] (2 ppm) is 30%; in assay [1] (10 ppm), 90%; in assay [1] (50 ppm), 100%; in assay [1] (100 ppm), 100%. Besides, the “CGM control value (C.V.)” value in the assay on Botrytis cinerae was found to be 45%. Further, the “TLB control value (C.V.)” value in the assay on Phytophthora infestans (2 ppm) was found to be 70%; with Phytophthora infestans (10 ppm) it was 90%; with Phytophthora infestans (50 ppm), 98%; with Phytophthora infestans (100 ppm), 100%. In addition, the “WLR control value (C.V.)” value with Puccinia recondita (2 ppm) is on record as 95%; in the assay with Puccinia recondita (10 ppm) it was 100%; with Puccinia recondita (50 ppm), 100%; in the assay on Puccinia recondita (100 ppm), 100%. Also, the “BPM control value (C.V.)” value with Erysiphae graminis (2 ppm) is recorded as 95%; in the assay on Erysiphae graminis (10 ppm), 100%; in the assay with Erysiphae graminis (50 ppm), 100%; in the assay with Erysiphae graminis (100 ppm) it was 100%. Further, the “RSB control value (C.V.)” value in the assay on Rhizoctonia solani AG-1 (2 ppm) is 65%; in the assay on Rhizoctonia solani AG-1 (10 ppm), 98%; in the assay on Rhizoctonia solani AG-1 (50 ppm), 100%; in the assay with Rhizoctonia solani AG-1 (100 ppm), 100%.

For `CO/N=C(/C(=O)OC)c1ccccc1COc1ccc(C=C(Br)Br)cc1Br` [Example 77, methyl-(E)-2-(2-((2-bromo-4-(2,2-dibromovinyl)phenoxy)methyl)phenyl)-2-methoxyiminoacetate], the pest or weed control at 2 ppm was 30% in assay [1]; 70% in the assay on Phytophthora infestans; 95% in the assay on Puccinia recondita (2 ppm); 90% with Erysiphae graminis (2 ppm); 65% with Rhizoctonia solani AG-1. For the same compound, the pest or weed control at 10 ppm amounted to 90% in assay [1]; 90% in the assay with Phytophthora infestans; 100% with Puccinia recondita (10 ppm); 100% with Erysiphae graminis (10 ppm); 98% in the assay with Rhizoctonia solani AG-1. Moreover, the pest or weed control at 50 ppm in assay [1] amounted to 100%; in the assay on Phytophthora infestans, 98%; with Puccinia recondita (50 ppm), 100%; with Erysiphae graminis (50 ppm), 100%; with Rhizoctonia solani AG-1, 100%. Further, the pest or weed control at 100 ppm in assay [1] was 100%; in the assay with Botrytis cinerae, 70%; with Phytophthora infestans, 100%; in the assay with Puccinia recondita (100 ppm) it was 100%; with Erysiphae graminis (100 ppm) it was 100%; with Rhizoctonia solani AG-1, 100%.
